According to patent US7977364B2, “Indazoles, benzisoxazoles and benzisothiazoles and their use as estrogenic agents” (Laboratoire Thermamex, priority 2004, dated 2011):

Tests used:
[1] = molecular target: T1, purified full-length recombinant human ERα (Homo sapiens, UniProt P03372); test: Estrogen receptor α competitive radiometric binding assay ([3H]-E2); conditions: for RBA (%) Mean ± S.E.M, ER α: ratio of IC50s of E2 and competitor, E2 set at 100%
T1 sequence (P03372 1-595): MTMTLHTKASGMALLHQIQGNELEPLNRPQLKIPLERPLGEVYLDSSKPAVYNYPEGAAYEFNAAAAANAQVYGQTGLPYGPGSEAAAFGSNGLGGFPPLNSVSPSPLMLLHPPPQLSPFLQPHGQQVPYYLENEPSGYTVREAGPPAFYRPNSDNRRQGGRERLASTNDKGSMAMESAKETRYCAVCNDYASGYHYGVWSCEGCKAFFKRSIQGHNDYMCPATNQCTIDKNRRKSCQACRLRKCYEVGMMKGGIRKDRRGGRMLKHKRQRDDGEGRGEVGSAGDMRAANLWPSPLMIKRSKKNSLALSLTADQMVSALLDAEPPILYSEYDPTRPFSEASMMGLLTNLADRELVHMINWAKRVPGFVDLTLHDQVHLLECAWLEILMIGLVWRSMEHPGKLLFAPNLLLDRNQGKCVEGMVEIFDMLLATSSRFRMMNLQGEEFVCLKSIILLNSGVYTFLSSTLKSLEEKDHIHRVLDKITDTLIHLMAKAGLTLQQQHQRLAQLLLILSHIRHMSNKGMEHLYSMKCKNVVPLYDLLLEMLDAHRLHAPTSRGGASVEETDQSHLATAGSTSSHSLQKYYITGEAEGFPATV
Procedure: (§1) Relative binding affinities (RBA) were determined by competitive radiometric binding assays, using purified full-length recombinant human ERα and ERβ (PanVera, Madison, Wis.). […] After shaking for a few seconds and centrifugation at 1500 g and 4° C. for 10 minutes, 150 μl/well of Optiphase ‘Super Mix’ scintillation liquid was mixed with 50 μl of supernatant of each sample and the radioactivity was measured in a MicroBeta counter (Wallac, Turku, Finland). Data were evaluated by a sigmoidal dose-response curve (Prism, GraphPad Software Inc.) to estimate the concentration of competitor at half-maximal specific binding (IC50). […] The selectivity for ERα and ERβ was obtained from the ratio R of the IC50 for ERα to the IC50 for ERβ for each test compound.

[2] = tested on: human breast cancer cell line MCF-7; test: Proliferative activity in vitro (ATP luminescence, 6 days); type: cell-based; conditions: Homo sapiens, MCF7, 144 h; for activity at 1 µM: MCF-7, 10^−6 M, read-out: Effect at 10^−6 M (% of control); for activity at 1 µM / activity at 0.01 µM: six days; for activity at 0.01 µM: MCF-7, 10^−8 M, read-out: Effect at 10^−8 M (% of control); for EC50: MCF-7, six days, read-out: Cell proliferation EC50 (nM) ± S.E.M
Procedure: The proliferative effect of the compounds of the invention was evaluated on human breast cancer cell line MCF-7 by measuring the number of viable cells after 6 days of treatment.
MCF-7 cells were routinely cultured as monolayers in Dulbecco's modified Eagle's medium (DMEM) containing 4 mM Glutamax and 4.5 g/l glucose and supplemented with 5% (v/v) decomplemented fetal calf serum (dFCS) and antibiotics.
Cells were plated at 2.10^6 cells/75 cm^2 flasks and incubated at 37° C. in a humidified atmosphere containing 5% CO2. They were passaged once weekly to maintain continuous exponential growth. Forty eight hours before the start of an experiment, near-confluent cells were changed to a phenol red free DMEM containing 5% steroid-stripped dFCS by dextran coated charcoal treatment (DCC-DMEM). On the day of the experiment, cells were harvested by brief exposure to trypsin and plated in DCC-DMEM in 96-well microplates at a density of 4.10^3 cells/well. The next day, the medium was renewed and test compounds, diluted appropriately in estrogen-free DMEM, were added and incubated for six days. […] At the end of the incubation period, cell proliferation was evaluated by quantitation of the cellular ATP content which signals the presence of metabolically active cells.
The assay, based on the ATP-dependent luciferase reaction, enables generation of a luminescent signal proportional to the amount of ATP present. As there is a linear relationship between the amount of ATP and the number of viable cells present in culture, the luminescent signal allowed to precisely evaluate cell proliferation (Crouch, S. P. M. et al. J. Immunol. Meth., 1993, 160, 81; Kangas, L. et al. Med. Biol. 1984, 62, 338; Petty, R. D. et al. J. Biolum. Chemilum. 1995, 10, 29).
In brief, the microplates were inverted to discard the culture medium and 100 μl of fresh medium was added into each well. The microplates were equilibrated at room temperature for approximately 30 minutes. 100 μl of luciferase reagent was added into each well and contents were mixed for 2 minutes to induce cell lysis. The plates were incubated at room temperature for 10 minutes to stabilize luminescence signal.
Luminescence was recorded using a microplate reader (Wallac, model 1420 Victor^2) and results were expressed as percentage of the control luminescence. Sigmoidal dose-response curves were plotted and EC50 values were calculated for each compound in order to evaluate their proliferative potency.

[3] = molecular target: purified full-length recombinant human ERβ (Homo sapiens, UniProt Q92731); test: Estrogen receptor β competitive radiometric binding assay ([3H]-E2); conditions: for RBA (%) Mean ± S.E.M, ER β: ratio of IC50s of E2 and competitor, E2 set at 100%; for R (IC50s) αβ: ratio of the IC50 for ERα to the IC50 for ERβ; for selectivity for the human recombinant estrogen receptor β: in words
Procedure: as §1

Prepubescent female rats = test: Estrogenic / uterotrophic activity in vivo (uterus wet weight); design: species or system rat; conditions: Rattus norvegicus, po, 72 h, Table 4; orally 3 mg/rat/day for 3 days; read-out: % stimulation vs vehicle (uterus weight)
Procedure: Prepubescent female rats were orally treated at 3 mg/rat/day for 3 days. On the day following the last treatment, uteri were removed and wet weights were recorded.
The results are expressed as % of stimulation of uterus weight in comparison with vehicles. […]
Prepubescent female rats were orally treated with 0.3; 1; 3 or 10 mg/rat/day for 3 days. On the day following the last treatment, uteri were removed and wet weights were recorded.

[4] = tested on: human endometrial adenocarcinoma Ishikawa cells; test: Estrogenic and anti-estrogenic activities in vitro: induction of alkaline phosphatase (APase) activity; type: cell-based; conditions: for EC50: Homo sapiens, Ishikawa, 96 h, compound alone, four days, ND = not detected, read-out: Estrogenic activity EC50 (nM) ± S.E.M; for estrogenic effect in alkaline phosphatase activity in the Ishikawa cell model: in words
Procedure: The estrogenic and anti-estrogenic potentials of new compounds were evaluated using the induction of alkaline phosphatase (APase) activity, an estrogen specific response in human endometrial adenocarcinoma Ishikawa cells (Botella J., J Steroid Biochem Molec Biol, 1995, 55: 77-84; Littlefield et al., Endocrinology, 1990, 127: 2757-2762).
Ishikawa cells were routinely grown as monolayers in Dulbecco's Modified Eagle's medium (DMEM) containing 4 mM Glutamax I and supplemented with 10% of decomplemented fetal calf serum (dFCS) and antibiotics. They were maintained in a humidified atmosphere of 5% CO2 and 95% air, at 37±0.1° C. Stocks were performed once a week to maintain continuous exponential growth.
For studies, Ishikawa cells were plated into 96-well microplates. The next day, the medium was changed to a phenol red-free DMEM containing 5% dFCS stripped of endogenous estrogens by dextran coated charcoal treatment.
At the end of the incubation period, APase activity was assayed by a method involving the hydrolysis of p-nitrophenyl phosphate to p-nitrophenol at pH 9.8 and spectrophotometric determination of the product at 405 nm.
In brief, the microplates were first rinsed twice with cold phosphate buffered solution and then placed at −80° C. for at least 15 minutes. After thawing at room temperature for 5-10 minutes, the plates were put on ice and 50 μl ice-cold solution containing 5 mM p-nitrophenyl phosphate was added to each well. The plates were warmed to room temperature to allow for the development of the enzymatic reaction (t0). After a 15 to 60 minute incubation period, the intensity of the yellow color generated by the production of p-nitrophenol was measured into each well at 405 nm using a microplate reader (Wallac, model 1420 Victor^2). […] Sigmoidal dose-response curves were plotted and EC50 (estrogenic effect) and IC50 (anti-estrogenic effect) values were calculated for each compound.

purified full-length recombinant human ERβ, sequence (Q92731 whole entry): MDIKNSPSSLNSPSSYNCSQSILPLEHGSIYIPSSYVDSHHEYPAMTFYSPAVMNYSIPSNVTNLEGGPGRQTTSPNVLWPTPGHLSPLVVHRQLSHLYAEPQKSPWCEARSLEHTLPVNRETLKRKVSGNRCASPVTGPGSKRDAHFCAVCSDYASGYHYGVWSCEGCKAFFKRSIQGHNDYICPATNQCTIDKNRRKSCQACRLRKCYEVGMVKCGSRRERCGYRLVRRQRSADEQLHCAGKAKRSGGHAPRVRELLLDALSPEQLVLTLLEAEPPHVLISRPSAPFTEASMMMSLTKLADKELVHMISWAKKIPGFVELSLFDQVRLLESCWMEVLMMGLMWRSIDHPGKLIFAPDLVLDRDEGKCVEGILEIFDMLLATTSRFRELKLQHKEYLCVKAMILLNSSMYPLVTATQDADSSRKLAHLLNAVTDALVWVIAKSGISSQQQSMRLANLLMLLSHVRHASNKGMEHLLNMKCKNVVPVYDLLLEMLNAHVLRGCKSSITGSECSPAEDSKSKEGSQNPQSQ

Row | IC50 [1] [nM] | RBA (%) Mean ± S.E.M, ER α [1] [%] | EC50 [2] [nM] | IC50 [3] [nM] | RBA (%) Mean ± S.E.M, ER β [3] [%] | R (IC50s) αβ [3] | EC50 [4] [nM] | melting point [°C] | selectivity for the human recombinant estrogen receptor β [3] | SMILES | activity at 1 µM [2] [%] | activity at 0.01 µM [2] [%] | change in vivo at 3 mg (Prepubescent female rats) [%] | estrogenic effect in alkaline phosphatase activity in the Ishikawa cell model [4]
1 | 159 ± 23.7 | 1.2 ± 0.2 | 18.5 ± 1.8 | 10.2 ± 0.9 | 24.6 ± 4.3 | 15.6 | 136.3 ± 1.2 | 147 | – | Oc1ccc2c(C3CCCCC3)n[nH]c2c1 [Ex 24, 3-cyclohexyl-1H-indazol-6-ol] | 143 | 89.9 | 101 | –
2 | 1480 ± 1180 | 0.1 ± 0.02 | 11.5 ± 2.8 | 188 ± 34 | 1.0 ± 0.2 | 7.9 | 132 ± 4.7 | 162 | – | NS(=O)(=O)n1nc(C2CCCCC2)c2ccc(O)cc21 [Ex 40, 3-cyclohexyl-6-hydroxy-1H-indazole-1-sulfonamide] | 152 | 107 | 41 | –
3 | 75.3 ± 5.4 | 2.5 ± 0.6 | 27.6 ± 2 | 20.2 ± 4.2 | 13.2 ± 3.1 | 3.7 | 51.7 ± 6.2 | 156 | – | Oc1ccc2c(C3CCCCCC3)noc2c1 [Ex 65, 3-cycloheptyl-1,2-benzisoxazol-6-ol] | 260 | 123 | 84 | –
4 | 260 ± 40.1 | 1.1 ± 0.2 | 25.4 ± 4 | 44.6 ± 7.7 | 9.4 ± 3.1 | 5.8 | 221 ± 14 | 181 | marked selectivity | Oc1ccc2c(C3CCCCC3)noc2c1 [Ex 66, 3-cyclohexyl-1,2-benzisoxazol-6-ol] | 149 | 100 | 31 | weak estrogenic effect
5 | 2910 ± 318 | 0.1 ± 0.0 | 365 ± 126 | 485 ± 158 | 1.0 ± 0.3 | 6.0 | – | – | marked selectivity | Oc1ccc(Cc2noc3cc(O)ccc23)cc1 [Ex 73, 3-(4-hydroxybenzyl)-1,2-benzisoxazol-6-ol] | 134 | 94.2 | 52 | weak estrogenic effect
6 | 67.5 ± 5 | 3.4 ± 0.4 | 45.2 ± 25.6 | 7.5 ± 0.7 | 43.0 ± 7.8 | 9.0 | 147 ± 39.9 | – | – | N#CC(Cc1ccc(O)cc1)c1noc2cc(O)ccc12 (stereo not drawn) [Ex 80, 2-(6-hydroxy-1,2-benzisoxazol-3-yl)-3-(4-hydroxyphenyl) propanenitrile] | 147 | 110 | 70 | –
7 | 2300 ± 446 | 0.1 ± 0.03 | 77.9 ± 4.1 | 123 ± 25.9 | 2.5 ± 0.4 | 18.7 | 322 ± 20 | 152 | marked selectivity | N#CC(Cc1ccc(F)cc1)c1noc2cc(O)ccc12 (stereo not drawn) [Ex 84, 2-(6-hydroxy-1,2-benzisoxazol-3-yl)-3-(4-fluorophenyl) propanenitrile] | 286 | 97 | 24 | weak estrogenic effect
8 | 1890 ± 365 | 0.2 ± 0.03 | 466 ± 34 | 135 ± 31 | 2.4 ± 0.4 | 14.1 | – | 154 | marked selectivity | N#CC(Cc1ccc(O)c(O)c1)c1noc2cc(O)ccc12 (stereo not drawn) [Ex 86, 2-(6-hydroxy-1,2-benzisoxazol-3-yl)-3-(3,4-dihydroxyphenyl) propanenitrile] | 139 | 85.6 | 25 | weak estrogenic effect
9 | 88.6 ± 11.7 | 1.3 ± 0.2 | 16.1 ± 2.6 | 37.8 ± 5.4 | 5.1 ± 0.8 | 2.3 | 124 ± 8.9 | 190 | marked selectivity | Oc1ccc2c(C3CCCCC3)nsc2c1 [Ex 93, 3-cyclohexyl-1,2-benzisothiazol-6-ol] | 156 | 116 | 88 | weak estrogenic effect
